Values of other authors as cited in patent publication US20070232537A1, “INTRANASAL PYY FORMULATIONS WITH IMPROVED TRANSMUCOSAL PHARMACOKINETICS” (Nastech Pharmaceutical Company Inc., priority 2005, published 2007).
Values belong to the compound of their own block, whether it stands above or below them.

Tests used:
[1] = aqueous solution at physiologic pH
[2] = anesthetized rats; increased from 7.5

Compound: CCN(CC)/[N+]([O-])=N/O.CCNCC [diethylamine/NO]
NO release rate (time) [1]: < 3 min

nasal bioavailability of human growth hormone [2]: 12.2%
Compound: CC(=O)N[C@@H](CS)C(=O)O [N-acetyl-L-cysteine]

times more effective in enzyme inhibition than bestatin (aminopeptidases): more than 100 times | times more effective in enzyme inhibition than puromycin (aminopeptidases): more than 1000 times
Compound: CC(C)CC(N)B(O)O (stereo not drawn) [boro-leucine]

Compound: NCCN(CCN)/[N+]([O-])=N/O [diethylenetriamine/NO]
NO release rate (time) [1]: approximately 20 hours

Compound: 2-alkyl-4-hydroxyquinolines [pyo compound]
concentration producing ciliostasis / inhibiting ciliary motility (ciliary motility): 50 µg/mL
